Values quoted from earlier work in US9433581B2, “Poly(vinyl benzoate) nanoparticles for molecular delivery” (University of South Florida, priority 2010, dated 2016).

Conditions: octanol/water, reported in the literature

Row | Molecule | Log P
1 | CCN(CC)c1ccc2cc(-c3nc4ccccc4s3)c(=O)oc2c1 [Coumarin-6, coumarin-6] | −3.45
2 | 5(6)-carboxyfluorescein | 5.43
